Experimental findings from patent publication US4382084A, “Antibiotics” (Beecham Group Limited, priority 1975, dated 1983) are described below.

Molecules are shown by their SMILES.

For data set [1], the system named is Staphylococcus aureus Russell. As to the kind of experiment: MIC test of synergy with ampicillin. It counts as cell-based. To be noted: ampicillin administered separately, read-out: MIC of ampicillin alone (not inhibited by). How it is done: b. […] The following test results were obtained using a strain of Staphylococcus aureus Russell which is neither inhibited by 250 μg/ml of ampicillin nor inhibited by 5 μg/ml of synergist aministered separately.

A further data set is described as follows: Acute toxicity in mice. To be noted: mouse, in vivo.
The target of a further data set is E. coli JT4 β-lactamase (Escherichia coli, UniProt P62593). As to the kind of experiment: β-lactamase inhibition assay (Belgian Patent No. 827926). To be noted: enzyme of E. coli JT4; read-out: Approximate I50 (converted). It counts as biochemical. As to the method:
(§1) When the compound prepared by the method of Example 1 was tested against certain enzymes by the β-lactamase inhibition assay described in Belgian Patent No. 827926 the following ^I 50 values were obtained: […]

Another data set relates to E. coli JT10 β-lactamase. The data set is described as above. To be noted: enzyme of E. coli JT10. It counts as biochemical. How it is done:
as §1

The target of data set [2] is Staphylococcus aureus (Russell) β-lactamase (Staphylococcus aureus, UniProt P00807). Described as above. It counts as biochemical. To be noted: enzyme of Staphylococcus aureus (Russell); read-out: Approximate I50 (converted). How it is done: as §1
In data set [3] the target is Klebsiella aerogenes AE70 β-lactamase. The data set is described as above. It counts as biochemical. To be noted: enzyme of Klebsiella aerogenes AE70. How it is done:
as §1

E. coli JT4 β-lactamase, sequence (P62593 24-286 limits assumed): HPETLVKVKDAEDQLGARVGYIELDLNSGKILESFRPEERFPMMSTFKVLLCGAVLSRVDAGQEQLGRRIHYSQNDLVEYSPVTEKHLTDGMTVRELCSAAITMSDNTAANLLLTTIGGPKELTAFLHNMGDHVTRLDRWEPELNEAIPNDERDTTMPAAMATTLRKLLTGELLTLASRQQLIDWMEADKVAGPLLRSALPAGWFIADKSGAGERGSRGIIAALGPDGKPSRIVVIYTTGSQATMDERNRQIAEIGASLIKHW
Staphylococcus aureus (Russell) β-lactamase, sequence (P00807 25-281): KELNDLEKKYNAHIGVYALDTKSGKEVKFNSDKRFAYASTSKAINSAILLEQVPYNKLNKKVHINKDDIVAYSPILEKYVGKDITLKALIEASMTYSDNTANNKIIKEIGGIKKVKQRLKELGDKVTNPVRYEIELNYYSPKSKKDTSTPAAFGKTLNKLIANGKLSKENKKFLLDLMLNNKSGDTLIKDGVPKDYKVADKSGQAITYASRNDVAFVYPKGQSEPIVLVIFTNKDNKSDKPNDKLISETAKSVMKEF

As to `CC1(C)S[C@@H]2[C@H](NC(=O)[C@H](N)c3ccccc3)C(=O)N2[C@H]1C(=O)O` [ampicillin], the minimal inhibitory concentration (MIC) in data set [1] is greater than 250 µg/mL.
As for `C=CCN(CC=C)C/C=C1\O[C@@H]2CC(=O)N2[C@H]1C(=O)OCc1ccccc1` [Example 8, Benzyl diallylaminodeoxyclavulanate], the LD50 is greater than 500 mg/kg in the data set “Acute toxicity in mice” (oral route) and greater than 500 mg/kg in “Acute toxicity in mice” (sc, sub-cutaneous route).
For the compound `O=C(OCc1ccccc1)[C@H]1/C(=C/CN(Cc2ccccc2)Cc2ccccc2)O[C@@H]2CC(=O)N21` [Example 1], the figures for the IC50 (at E. coli JT4 β-lactamase; in data set [2]) were 42.7 µM and 128 µM, respectively. Besides, the “Approximate I50” value in the data set with E. coli JT10 β-lactamase is 0.24 mg/mL; in data set [3], 0.40 mg/mL.
For `CCCN(C/C=C1\O[C@@H]2CC(=O)N2[C@H]1C(=O)O)CCC` [Example 12, 9-(N,N-dipropylamino)-9-deoxyclavulanio acid], the LD50 in the data set “Acute toxicity in mice” (oral route) is greater than 500 mg/kg; in “Acute toxicity in mice” (sc, sub-cutaneous route) it was greater than 500 mg/kg.
